A short description of one data set: Solubility in chloroform. The class given is physicochemical. To be noted: organic solvent or mixture. The method, then:
(§1) For the absorption characteristic of such compounds, absorption spectra were measured by use of a near infrared photospectrometer to confirm that they could be utilized as materials for the optical switch operating at a wavelength of 1.3 μm. Further, for the thermal stability, the thermal decomposition temperature was measured by thermogravimetry and differential thermal analysis to confirm that they were thermally stable materials for the optical switch. Further, their solubility in organic solvents such as chloroform and acetone was confirmed.

Data set [1] is described as follows: Thermal decomposition temperature by thermogravimetry and differential thermal analysis. The class given is physicochemical. The method, then:
as §1

The values that follow come from US6825363B2, “Compounds useful in optical switching and manufacturing method thereof” (Fuji Xerox Co., Ltd., priority 2002, dated 2004).

≈ marks a conversion by molar mass, not a printed value.

The solubility is the concentration that dissolves in the medium under given conditions.

With `CCN(CC)c1cc(O)c2c(c1)OC(=O)/C2=C(/[O-])C1=C2C(O)=CC(=[N+](CC)CC)C=C2OC1=O` [Compound (2)], in the data set “Solubility in chloroform”, the solubility worked out at 3 mg/mL (≈ 6.43 mM). In data set [1], the “decomposition temperature (thermal stability)” value was at least 200 °C.
In the case of `CC(C)CN(CC(C)C)c1cc(O)c2c(c1)OC(=O)/C2=C(/[O-])C1=C2C(O)=CC(=[N+](CC(C)C)CC(C)C)C=C2OC1=O` [Compound (1)], in the data set “Solubility in chloroform”, the solubility came out at 54 mg/mL (≈ 93.3 mM). Moreover, the “decomposition temperature (thermal stability)” value in data set [1] is 202.7 °C.
